Experimental findings from PubChem BioAssay AID1996 are described below.

Broadly, the solubility (kinetic) is the concentration staying in solution when a stock, usually in DMSO, is diluted into the medium.

≈ marks a conversion by molar mass, not a printed value. Where only a bound is given, the exact number is not on record here.

For this data set the following is noted: buffer; pH 7.4; 200.0 µM.
Regarding `CCOc1ncccc1C(=O)OC(C)C(=O)Nc1ccc(N2CCOCC2)cc1` (stereo unspecified), the kinetic solubility was found to be 27.5 µg/mL (≈ 68.8 µM). As for `Cc1ccc(C)c(NC(=O)CN(C)C(=O)CC2OC(=O)c3ccccc32)c1` (stereo unspecified), the kinetic solubility is greater than 55 µg/mL. For `COc1ccc2ccn(S(=O)(=O)c3ccccc3)c2c1` the value was 2.9 µg/mL (≈ 10.1 µM); for `CCC(C)c1ccc(NC(=O)NCc2cccnc2)cc1` (stereo unspecified), 41 µg/mL (≈ 145 µM); for `O=C(CCC1CCCN(C(=O)c2ccco2)C1)NCc1ccccc1F` (stereo unspecified), greater than 53.8 µg/mL. In the case of `O=C(/C=C/c1ccc(Br)cc1)NCCCn1ccnc1`, the solubility (kinetic) turned out to be 44.2 µg/mL (≈ 132 µM). To `CSc1sc(C(=O)N2CCc3ccccc32)cc1S(=O)(=O)C(C)C` belongs less than 0.8 µg/mL; to `Cc1ccc(Cn2c(N3CCNCC3)nc3c2c(=O)[nH]c(=O)n3C)cc1`, 51.2 µg/mL (≈ 144 µM). Consider `CCC1(CC)NC(=O)N(CC(=O)N2CCc3ccccc32)C1=O`, for which the solubility (kinetic) turned out to be 45.8 µg/mL (≈ 145 µM). As for `COc1cc2c(cc1OC)C(C(=O)NC(C)C)C1CCCCN1C2=O` (stereo unspecified), the kinetic solubility was greater than 52 µg/mL. As for `N#C/C(=C\c1ccccc1)C(=O)OCC(=O)N1CCCC1`, the solubility (kinetic) is greater than 42.6 µg/mL. Take `Cc1ccc(C(=O)CCc2ccc(N)cc2)cc1`: the kinetic solubility came to 34.9 µg/mL (≈ 146 µM).

Turning to `CCc1cc2c3c(c1)C(C)CC(C)(C)N3C(=O)/C2=C1\SC(=O)NC1=O` (stereo unspecified), the solubility (kinetic) stood at 1.1 µg/mL (≈ 3.09 µM). For the compound `O=[N+]([O-])c1cccc(C(=NCc2ccccc2)NO)c1`, the solubility (kinetic) is greater than 40.7 µg/mL. Compound `Cc1ccsc1C(=O)OCC(=O)c1cc(C)n(C)c1C` yielded a solubility (kinetic) of 3.7 µg/mL (≈ 12.7 µM). Compound `COC(=O)c1cc(OC)c(OC)cc1N1C(=O)CCCC1=O` showed a solubility (kinetic) greater than 46.1 µg/mL. `COc1ccc(NC(=O)c2ccccc2NC(=O)c2cccs2)cc1`: the kinetic solubility was less than 0.4 µg/mL.

In turn, `CC(=O)N1CCN(c2nc3ccc([N+](=O)[O-])cc3s2)CC1` registered a kinetic solubility of 31.7 µg/mL (≈ 103 µM). As for `CC(NC(=S)NC1CCC(C(C)(C)C)CC1)c1ccccc1` (stereo unspecified), the kinetic solubility was less than 0.3 µg/mL.

For the compound `CCOC(=O)N1CCC(NS(=O)(=O)c2ccc(C#N)cc2)CC1`, the kinetic solubility is greater than 50.6 µg/mL. Turning to `Cc1cccc(NS(=O)(=O)c2ccc3[nH]c(=O)oc3c2)c1C`, the solubility (kinetic) amounted to 41.9 µg/mL (≈ 132 µM). `COc1ccc(N(CC(=O)N2CCCC2)S(C)(=O)=O)cc1` had a kinetic solubility of 34.5 µg/mL (≈ 110 µM). Compound `C/C(=N\NC(N)=O)c1c(O)n(C)c(=O)n(C)c1=O` gave a solubility (kinetic) greater than 38.3 µg/mL.

The compound `O=C1CN=C(c2cc([N+](=O)[O-])ccc2Cl)c2cc([N+](=O)[O-])ccc2N1` yielded a kinetic solubility of 1.6 µg/mL (≈ 4.44 µM). To `CC1CCN(CC#CCOc2ccc(Cl)cc2)CC1.O=C(O)C(=O)O` belongs 16.3 µg/mL; to `CC(C)(C)OC(=O)NCCC(=O)N/N=C/c1ccc2ncccc2c1`, greater than 51.4 µg/mL. Take `C[N+]12CCCCC1[C@@H](CO)CCC2.[Br-]` (stereo partly specified): the kinetic solubility is 39.1 µg/mL. `COc1ccc(S(=O)Cc2ccc(C(=O)NC3CC3)o2)cc1` (stereo unspecified) registered a kinetic solubility greater than 47.9 µg/mL. For `CN(C)c1cccc2c1c(NS(=O)(=O)c1cn(C)cn1)nn2C` the value was greater than 50.2 µg/mL; for `Cc1ccc(CNC(=O)Cc2noc3ccccc23)cc1`, 2.3 µg/mL (≈ 8.2 µM). To `Nc1ncccc1C(=O)OCC(=O)NC1CCCCCC1` belongs 38 µg/mL (≈ 130 µM). In turn, `O=C(Nc1ccc(N2CCOCC2)c(S(=O)(=O)Nc2ccccc2Cl)c1)c1ccc(F)cc1` had a kinetic solubility of 1 µg/mL (≈ 2.04 µM). In the case of `O=C(CN1CCOCC1)Nc1cccc([N+](=O)[O-])c1`, the kinetic solubility came to 36.3 µg/mL (≈ 137 µM). Regarding `O=C(N/N=C/c1c[nH]c2ccccc12)c1ccccc1O`, the kinetic solubility is greater than 41.9 µg/mL. `CC(C)Cn1c(N)c(C(=O)COC(=O)c2ccccc2C(=O)c2ccccc2)c(=O)n(C)c1=O` showed a kinetic solubility of 3.5 µg/mL (≈ 7.55 µM). For `Cc1cccn2cc(CCNC(=O)Cc3cccs3)nc12` the value was greater than 44.9 µg/mL; for `Cc1cc(C(C)(C)C)cc(S(=O)(=O)Nc2ccc(C(=O)O)cc2)c1C`, 40.8 µg/mL (≈ 113 µM).

In turn, `O=C(C1COc2ccccc2O1)N1CCN(c2ccc(C(F)(F)F)cn2)CC1` (stereo unspecified) came in with a kinetic solubility of 16.3 µg/mL (≈ 41.4 µM). Compound `Nc1nc(CCOc2ccc(F)cc2)cs1` registered a kinetic solubility of 34.3 µg/mL (≈ 144 µM). Regarding `COc1ccc(NC(=S)N(CCN(C)C)Cc2cccs2)cc1`, the kinetic solubility was greater than 52.4 µg/mL. The compound `FC(F)(F)C1=Nc2cccc3cccc(c23)N1` returned a kinetic solubility of 13.5 µg/mL (≈ 57.2 µM).

Consider `Cn1c(C(=O)O)cc2cc(Oc3ccccc3)ccc21`, for which the kinetic solubility was determined as 36 µg/mL (≈ 135 µM). `COc1ccccc1N1C(=O)CC(=O)NC1=O` gave a kinetic solubility greater than 35.1 µg/mL.

Consider `O=C(COC(=O)CNC(=O)c1cccc(OC(F)F)c1)NCc1ccc2c(c1)OCO2`, for which the solubility (kinetic) was found to be 22 µg/mL (≈ 50.4 µM). Compound `COc1cc(-c2csc(NC3CCCCC3)n2)cc(OC)c1OC` displayed a kinetic solubility of 6.6 µg/mL (≈ 18.9 µM). `N#CC1(NC(=O)Cn2cc(C(F)(F)F)ccc2=O)CCCC1` gave a solubility (kinetic) greater than 47 µg/mL. As to `COc1ccc(S(=O)(=O)N2CCOCC2)cc1NC(=O)Cc1ccsc1`, the solubility (kinetic) amounted to 7.6 µg/mL (≈ 19.2 µM). The compound `Cc1ccc(C(=O)OCC(=O)N2CCOCC2)c(C)c1` had a solubility (kinetic) of 34 µg/mL (≈ 123 µM). As for `Fc1ccccc1N1CCN(CCCc2ccccc2)CC1`, the solubility (kinetic) is 19.6 µg/mL (≈ 65.7 µM). This solubility kinetic is about 1.7-fold lower than that of the compound before. To `O=C(Nc1ccccc1N1CCOCC1)c1ccco1` belongs 35 µg/mL (≈ 129 µM); to `CCOc1ccc(/C=N/NC(=O)Cn2ccnc2C)cc1`, greater than 42.9 µg/mL.
